{"source": "patent US9753023B2", "about": "“Nanofiber grid and related methods” (Carnegie Mellon University, priority 2015, dated 2017)", "assay_type_in_all_cases": "cell-based", "key": {"C2C12 mouse myoblasts [1]": {"tested_on": "C2C12 mouse myoblasts", "assay": "Nanonet probe system: single-cell force evolution under cyclic sub-failure stretch with drug", "conditions": "30-minute period; for reduction in force: cycled at 1× (one stretch per two minutes), strain rate 2 μm/s", "description": "The use of a suspended nanonet platform for measuring C2C12 mouse myoblast forces attached to fibers of three diameters (250, 400, and 800 nm) representing a wide range of structural stiffness (3-50 nN/μm) in connection with the NFM is developed to allow investigations in cell adhesion forces in response to symmetric and asymmetric external perturbation in single and cyclic modes at high magnifications in real time. The combined findings are two-fold: (i) contractility-based inside-out forces are evenly distributed at the edges of the cell, and that overall force magnitudes are dependent on fiber structural stiffness, and (ii) external perturbation in symmetric and asymmetric modes biases cell-fiber failure location, without affecting the outside-in forces of cell-fiber adhesion (FIG. 5). Further measured are forces of (i) cell-cell junctions, (ii) cyclic perturbation of single cells in presence of drugs, and (iii) cancerous single-cells transitioning from a blebbing to pseudopodial morphology.\n(§1) Polymeric solutions of polystyrene (Scientific Polymer Products Inc., Ontario, N.Y., Mw: 2×10^6 g·mol^−1) dissolved in xylene (Fisher Scientific, Pittsburgh, Pa.) at 14% and 5% (w/w) were prepared. Plastic coverslips (Fisher Scientific, Pittsburgh, Pa.) were cut to hollow frames and used as substrates. Suspended and aligned polystyrene (PS) nanofibers of varying diameters, spacing and orientation were deposited onto a rotating plastic hollow frame in criss-crossed patterns using the STEP platform at room temperature and 15% relative humidity. Using a custom solvent evaporation-based fusing method, the nodes of the criss-crossed patterned nanofibers were fused to form STEP nanonets with clamped boundary conditions. […]\nTo further evaluate the nanonet probe system for efficacy as a drug testing platform at high magnifications and temporal resolutions, we subjected cells to varying concentrations of the rho kinase (ROCK)-inhibitor Y27632 and monitored its force evolution over the same 30-minute period. […]"}, "C2C12 mouse myoblasts [2]": {"tested_on": "C2C12 mouse myoblasts", "assay": "Stress relaxation test (step strain) fitted to the standard linear solid (SLS) model", "procedure": "as §1, with “humidity.” for “humidity. Using a custom solvent evaporation-based fusing method, the nodes of the criss-crossed patterned nanofibers were fused to form STEP nanonets with clamped boundary conditions.”\nAs cells experience forces, interactions between cytosol and cytoskeletal structures within their semi-permeable membrane elicit strain-rate dependent responses, but identifying physiological mechanisms for this behavior has proven difficult [Janmey, P. A., et al., J. Biol. Chem. 1994; 269:32503-13; Darling, E. M., et al., Biophys. […] Since viscoelasticity can alter the measured force at different strain rates, it is nonetheless an important parameter to qualitatively describe even without complete knowledge of the contribution of individual cellular components [Ketene, A. N., et al., Integr. […] Viscoelastic response is quantified through the classic stress relaxation test [Nagayama, K., et al., Med. Eng. […]"}, "DBTRG-05MG glioma cells [3]": {"tested_on": "DBTRG-05MG glioma cells", "assay": "Outside-in force response to a probe deflecting the leading fiber on nanonets", "procedure": "(§2) According to one aspect of the methods described herein, using a highly aggressive glioma model (DBTRG-05MG), the platform technology using nanonets fused in crossed patterns manufactured using the non-electrospinning STEP technique serves to quantify single cell force modulation (both inside-out and outside-in) with and without the presence of a cytoskeleton altering drug (cytochalasin D) using suspended and aligned fiber networks (nanonets) beginning to represent the aligned glioma environment. This platform technology allows to measure contractile single cell forces exerted by glioma cells attached to and migrating along the fiber axis (inside-out). Further, the force response of glioma cells attached to two parallel fibers using a probe deflecting the leading fiber (outside-in) is measured. The forces are calculated using beam deflection within the elastic limit. […] The platform technology also allows for measuring changes in cell morphology, such as shape, area, etc. This technology allows the physiologically relevant aligned fiber networks used as ultra-sensitive force (˜nanoNewtons) probes for investigating drug response and efficacy in disease models at the single cell resolution."}, "DBTRG-05MG glioma cells [4]": {"tested_on": "DBTRG-05MG glioma cells", "assay": "Inside-out contractile single cell force and spreading area on nanonets", "procedure": "as §2"}}, "note": "Entries after “also recorded” stand apart in the source; their conditions may differ."}
{"smiles": "C[C@@H](N)[C@H]1CC[C@H](C(=O)Nc2ccncc2)CC1", "note": "[Y27632]", "values": [{"measurement": "reduction in force", "setting": "C2C12 mouse myoblasts [1]; 10 μM", "result": 38, "unit": "%"}, {"measurement": "reduction in force", "setting": "C2C12 mouse myoblasts [1]; 100 μM", "result": 57, "unit": "%"}, {"measurement": "reaching a steady-state force value", "setting": "C2C12 mouse myoblasts [1]; ROCK-inhibited cells versus cyclically-perturbed cells", "result": "did not"}]}
{"smiles": "Cc1ccc2c(c1)C(=O)C1(O)CCN(c3ccccc3)C1=N2", "note": "(centres unmarked) [blebbistatin]", "values": [{"measurement": "relative contributions of SLS parameters k1, k2 and η (normalized)", "setting": "C2C12 mouse myoblasts [2]; 50 μM blebbistatin, myosin-II disrupted", "result": "shifting in the relative contributions from k2 to η; also recorded: shift in major contribution from k2 to η"}]}
{"smiles": "C=C1[C@@H](C)[C@H]2[C@H](Cc3ccccc3)NC(=O)[C@]23[C@H](OC(C)=O)/C=C/[C@@](C)(O)C(=O)[C@@H](C)C/C=C/[C@H]3[C@@H]1O", "note": "[cytochalasin D]", "values": [{"measurement": "'outside-in' force response to external strain", "setting": "DBTRG-05MG glioma cells [3]", "result": "decreasing"}, {"measurement": "'inside-out' contractile forces", "setting": "DBTRG-05MG glioma cells [4]", "result": "decreasing"}, {"measurement": "spreading area of single glioma cells", "setting": "DBTRG-05MG glioma cells [4]", "result": "compromises the spreading area"}]}
{"smiles": "COC(=O)Nc1nc2ccc(C(=O)c3cccs3)cc2[nH]1", "note": "[nocodazole]", "values": [{"measurement": "relative contributions of SLS parameters k1, k2 and η (normalized)", "setting": "C2C12 mouse myoblasts [2]; 10 μM nocodazole, microtubules depolymerized", "result": "shifting in the relative contributions from k2 to η; also recorded: shift in major contribution from k2 to η"}]}
